Entries after “also recorded” stand apart in the source; their conditions may differ.
Columns and labels:
C. elegans males = experiment: Attraction assay (long-range, point source); details: in vivo
Experimental: 10 cm standard chemotaxis plates were prepared (Bargmann et al., Cell 74:515-27 (1993), which is hereby incorporated by reference in its entirety) and stored at 4° C. until the day before use. Standard 1 cm-diameter copper pipes were sectioned into 1 cm-tall segments to use for the holding chambers. The females/hermaphrodites were isolated overnight, washed 3 times in M9 buffer, and then allowed to wander on a plate pre-conditioned with 50 uL of 1000× streptomycin for 2 hours to kill any bacteria that might produce a false positive attractant. The nematodes were then washed 3 times, and the supernatant from the last wash was placed in a copper chamber, as the control, 1 cm from the border of the 10 cm plate. The nematodes were suspended in M9 within the copper chamber, 1 cm from the border opposite the control chamber. After 6 hours, they were subsequently removed and replaced with 3 μL of 1M sodium azide. 100 C. elegans adult males were isolated overnight, washed several times in ddH2O, and placed at the center of the agar plate. After several hours, males paralyzed within 2 cm of each region were scored. The Chemotaxis Index (Bargmann et al., Cell 74:515-27 (1993), which is hereby incorporated by reference in its entirety) was then used to score male chemotaxis to either point source.

C. elegans [1] = details: cited from earlier work
C. elegans [2] = experiment: Ascaroside function (Table 12), C. elegans; type: in vivo, Caenorhabditis elegans; parameters: key to Attract Females/Herm. / Promote Dauer Formation / Attract Males: A very strong result of affecting nematode behavior is designated in the table as “strong.”
Experimental: (§1) Various ascarosides and ascaroside blends were administered to various nematodes described below (Table 12). […] A very strong result of affecting nematode behavior is designated in the table as “strong.”

S. feltiae = experiment: Ascaroside function (Table 12), S. feltiae; type: in vivo, Steinernema feltiae
Experimental: as §1

Panagrellus redivivus = experiment: Ascaroside function (Table 12), Panagrellus redivivus; type: in vivo
Experimental: as §1

[3] = tested on: several of the tested nematode species; experiment: Retention assay, across species; type: in vivo; details: 1 nM, 1 μM and 1 mM tested
Experimental: OP50 E. coli was grown on a standard 5 cm agar plate (made with standard Nematode Growth Medium). The bacterial lawn was 16 mm in diameter and was grown overnight at 20° C. before being used in trials. Two 4 mm spots (0.6 μL) were placed on opposite sides of the bacterial lawn (using a transparent template to guide spot placement), and several minutes elapsed for the liquid to settle in before placing nematodes down on the assay. Recording began immediately upon worm placement. 0.6 μL of the control was placed on one side of the lawn, and 0.6 μL of the experimental cue was placed on the other side of the lawn, changing the location of the cue throughout trials between left/right and top/bottom to avoid bias.
Nematodes were isolated by gender at the L4 stage the day before being used in trials as developed adults. Worms were evenly divided and placed at two points equidistant from the foci of the scoring region. Trials were recorded for 20 minutes, and frames were collected for analysis at 1 frame per second. Results were averaged from at least three different trials. For every nematode species in this study, a different total number of worms (using water in both scoring regions) was tested to determine the minimum number of worms necessary for consistent unbiased results over a 20 minute trial. The total number of worms used in the multiple species assays depended on that species' optimal parameters. 10 worms were used for P. redivivus males and females, 20 worms were used for C. elegans males and O. dolichuridae males, and 14 worms were used for S. glaseri males. The Automated Software was used to compare worm occupancy in each scoring region over time, and the Chemotaxis Index (Bargmann et al., Cell 74:515-27 (1993), which is hereby incorporated by reference in its entirety) was adapted to score preference or avoidance to each ascaroside.
A video camera attached to the microscope produced a digital video stream, which was then analyzed. The ratio of the time the average worm spent in each region of interest was calculated for every trial. For ease of implementation, all worms in a single experiment were assumed to be roughly the same size. Thus worm pixels were counted instead of whole worms, allowing fractions of a worm in the region of interest to be taken into account. It also eliminated the need for a shape-based worm identification algorithm, and allowed each frame to be analyzed independently. A band-pass filter was applied to each frame to eliminate the effect of uneven lighting and also accentuate the worms against the background. The worm was then identified after thresholding the filtered image. Throughout each experiment, the locations and sizes of the regions of interest were known. Through the filtering described above, it is known which pixels are occupied by worms and which ones are not. Thus, the ratio of worm-pixels to all pixels inside the region of interest can be calculated to produce the worm-occupancy ratio. This calculation was done for every frame, giving a plot output of worm-occupancy ratio vs. time for each region.

C. elegans [4] = details: in vivo; cited from earlier work
S. glaseri = experiment: Ascaroside function (Table 12), S. glaseri; type: in vivo
Experimental: as §1

[5] = tested on: Meloidogyne javanica, M. floridensis, M. incognita, M. hapla; experiment: Ascaroside function (Table 12), root-knot nematodes; type: in vivo, Meloidogyne spp.; details: for Dispersal (of dauer larvae, infectious juveniles) / Repel Females/Herm.: Meloidogyne javanica, M. floridensis, M. incognita, M. hapla, entries marked *; for act as dispersants and repellants in Meloidogyne species: alone, in concert, and/or in concert with ascr#9 or other ascarosides
Experimental: as §1

[6] = tested on: Heterorhabditis bacteriophora, H. zealandica, H. floridensis; experiment: Ascaroside function (Table 12), Heterorhabditis; type: in vivo, Heterorhabditis spp.; details: for Dispersal (of dauer larvae, infectious juveniles) / Repel Females/Herm.: Heterorhabditis bacteriophora, H. zealandica, H. floridensis, entries marked *; for act as dispersants and repellants in Heterorhabditis: alone, in concert, and/or in concert with ascr#9 or other ascarosides
Experimental: as §1

[7] = tested on: C. elegans hermaphrodites and males; experiment: Spot attraction assay; type: in vivo
Experimental: The spot attraction assays were conducted according to a previously reported method (Pungaliya et al., PNAS 106:7708-13 (2009); Srinivasan et al., Nature 454:1115-18 (2008), which are hereby incorporated by reference in their entirety). For both C. elegans hermaphrodites and males, 50-60 worms were harvested daily at the fourth larval stage (L4) and stored segregatedly by sex at 20° C. overnight, to be used as young adults the following day. For the competition experiments, two conditions were used: 120 nM ascr#3 and 10 nM icas#3 (Condition 1), or 12 μM ascr#3 and 1 μM icas#3 (Condition 2) in water containing 10% ethanol. Aliquots were stored at −20° C. in 20 μL tubes. 10% ethanol in water was used as control.
Attraction assays with hbas#3 were conducted as previously reported (Srinivasan et al., Nature 454:1115-18 (2008); Pungaliya et al., Proc. Natl. Acad. Sci. U.S.A. 106:7708-13 (2009), which are hereby incorporated by reference in their entirety). For the attraction assays, 50-60 hermaphrodite worms were harvested daily at the early fourth larval stage (L4) and stored at 20° C. overnight to be used as young adults the following day. Hbas#3 was dissolved in water containing 10% ethanol. Aliquots were stored at −20° C. in 20 μL tubes. 10% ethanol in water was used as control.

[8] = tested on: C. elegans hermaphrodites; experiment: Quadrant chemotaxis assay; type: in vivo; details: FIGS. 48A-B (spot attraction and quadrant chemotaxis)
Experimental: Chemotaxis to both non-indole and indole ascarosides was assessed on 10 cm four-quadrant petri plates (Wicks et al., Dev. Biol. 221:295-307 (2000), which is hereby incorporated by reference in its entirety). Each quadrant was separated from adjacent ones by plastic spacers (FIG. 1B). Pairs of opposite quadrants were filled with nematode growth medium (NGM) agar containing either indole ascarosides or non-indole ascarosides at different concentrations. Animals were washed gently in a S-basal buffer, placed in the center of a four-quadrant plate with ascarosides in alternating quadrants, and scored after 15 minutes and 30 minutes. A chemotaxis index was calculated as: (the number of animals on ascaroside quadrants minus the number of animals on buffer quadrants)/(total number of animals).
Chemotaxis to hbas#3 was assessed on 10 cm four-quadrant petri plates (Wicks et al., Dev. Biol. 221:295-307 (2000), which is hereby incorporated by reference in its entirety). Each quadrant was separated from adjacent ones by plastic spacers. Pairs of opposite quadrants were filled with nematode growth medium (NGM) agar containing different concentrations of hbas#3. Animals were washed gently in an S-basal buffer and placed in the center of a four-quadrant plate with ascarosides in alternating quadrants, and scored after 15 minutes and 30 minutes. A chemotaxis index was calculated as: (the number of animals on ascaroside quadrants minus the number of animals on buffer quadrants)/(total number of animals).

In the case of `CC1O[C@@H](O[C@H](C)CCCC/C=C/C(=O)O)[C@@H](O)C[C@H]1O` (stereo partly drawn) [ascr#3], the “C. elegans male chemotaxis to a point source” value (C. elegans males) is given as “chemotax towards”, the “amount eliciting C. elegans male attraction from a distance (as low as)” value (C. elegans males) is given as at most 5 femtomol and the “most active amount for attraction in C. elegans” value (C. elegans [1]; from 1 μM concentration) is given as about 1 pmol. For the same molecule, the hermaphrodite repulsion (C. elegans [1]; in vivo) was “repels hermaphrodites; also recorded: strongly deter”, the male attraction (C. elegans [1]; in vivo) was “strongly attracts males” and the “Attract Males” value (C. elegans [2]) was “ascr#3”. For the same molecule, the “Promote Dauer Formation” value (C. elegans [2]) was “([strong])”, the “Repel Females/Herm.” value (C. elegans [2]) was “ascr#3” and the “Dispersal (of dauer larvae, infectious juveniles)” value (“Dispersal” for short) (S. feltiae) was “ascr#3”. The “Attract Males” value (Panagrellus redivivus) was “ascr#3”, the “preference for areas conditioned by ascaroside” value (“preference for areas conditioned” for short) [3] was “preferred” and the dauer-inducing activity (C. elegans [4]) was “promote dauer entry”. The “Attract Males” value (S. glaseri) was “ascr#3”.
For `CC(=O)CC[C@@H](C)O[C@@H]1O[C@@H](C)[C@H](O)C[C@H]1O[C@@H]1O[C@H](CO)[C@@H](O)[C@H](O)[C@H]1O` [ascr#4], the “Promote Dauer Formation” value (C. elegans [2]) was “ascr#4”.
In the case of `C[C@@H]1O[C@@H](OCCC(=O)O)[C@H](O)C[C@H]1O` [ascr#5], the “Promote Dauer Formation” value (C. elegans [2]) is reported as “([strong])” and the “Repel Females/Herm.” value (C. elegans [2]) is reported as “ascr#5”.
For `C[C@H](CC/C=C/C(=O)O)O[C@@H]1O[C@@H](C)[C@H](O)C[C@H]1O` [ascr#7], the “Attract Males” value (C. elegans [2]) was “ascr#7”, the “Attract Males” value (Panagrellus redivivus) was “ascr#7” and the “preference for areas conditioned” value [3] was “preferred”. The “Attract Males” value (S. glaseri) was “ascr#7”.
With `CC1O[C@@H](O[C@H](C)CCCCCCC(=O)O)C(O)C[C@H]1O` (stereo partly drawn) [ascr#10] the “Attract Males” value (C. elegans [2]) was “ascr#10”, the “Attract Males” value (Panagrellus redivivus) was “ascr#10” and the “preference for areas conditioned” value [3] was “preferred”. The “Dispersal” value [5] was “ascr#10*”, the “Repel Females/Herm.” value [5] was “ascr#10*” and the “act as dispersants and repellants in Meloidogyne species” value (“act … in Meloidogyne species” for short) [5] was “dispersants and repellants”. For the same molecule, the “Attract Males” value (S. glaseri) was “ascr#10”.
With `CC1OC(O[C@H](C)CCCCCCCC(=O)O)C(O)CC1O` (stereo partly drawn) [ascr#16] the “Dispersal” value [5] was “ascr#16*”, the “Repel Females/Herm.” value [5] was “ascr#16*” and the “act … in Meloidogyne species” value [5] was “dispersants and repellants”.
With `CC1OC(O[C@H](C)CCCCCCCCC(=O)O)C(O)CC1O` (stereo partly drawn) [ascr#18] the “Dispersal” value [5] was “ascr#18*”, the “Repel Females/Herm.” value [5] was “ascr#18*” and the “act … in Meloidogyne species” value [5] was “dispersants and repellants”. For the same molecule, the “Dispersal” value [6] was “ascr#18*”, the “Repel Females/Herm.” value [6] was “ascr#18*” and the “act as dispersants and repellants in Heterorhabditis” value [6] was “dispersants and repellants”.
In the case of `CC1OC(O[C@H](C)CCCCCCCCCC(=O)O)C(O)CC1O` (stereo partly drawn) [ascr#20], the “Dispersal” value [5] is reported as “ascr#20*”, the “Repel Females/Herm.” value [5] is reported as “ascr#20*” and the “act … in Meloidogyne species” value [5] is reported as “dispersants and repellants”.
For `C[C@H](CCCCCCCCCCC(=O)O)O[C@@H]1O[C@@H](C)[C@H](O)C[C@H]1O` [ascr#22], the “Dispersal” value [5] was “ascr#22*”, the “Repel Females/Herm.” value [5] was “ascr#22*” and the “act … in Meloidogyne species” value [5] was “dispersants and repellants”. For the same molecule, the “Dispersal” value [6] was “ascr#22*”, the “Repel Females/Herm.” value [6] was “ascr#22*” and the “act as dispersants and repellants in Heterorhabditis” value [6] was “dispersants and repellants”.
For `C[C@H](CCCC/C=C/C(=O)O)O[C@@H]1O[C@@H](C)[C@H](OC(=O)c2ccc(O)cc2)C[C@H]1O` [hbas#3, (8R)-(3′R-Hydroxy-5′R-(4-hydroxybenzoyloxy)-6′S-methyl-(2H)-tetrahydropyran-2′-yloxy)non-(2E)-enoic acid], the “Attract Females/Herm.” value (C. elegans [2]) was “([very”, the “Attract Males” value (C. elegans [2]) was “([strong])” and the “attraction of wild-type (N2) hermaphrodites” value ([7]; dose dependent manner) was “attracted”. For the same molecule, the “concentration at which C. elegans is strongly attracted (as low as)” value [8] was at most 10 femtomolar.
In the case of `C[C@H](CCCCC(=O)O)O[C@@H]1O[C@@H](C)[C@H](OC(=O)c2c[nH]c3ccccc23)C[C@H]1O` [icas#1], the “Attract Females/Herm.” value (C. elegans [2]) is reported as “([strong])”, the “Attract Males” value (C. elegans [2]) is reported as “([strong])” and the “attraction of both C. elegans sexes” value ([7]; high concentrations, 1 μmol, N2 hermaphrodites and him-5 males) is reported as “attractive; also recorded: attracted”.
In the case of `C[C@@H]1O[C@@H](OCCCCC(=O)O)[C@H](O)C[C@H]1O` [oscr#9, 5-(3′R,5′R-Dihydroxy-6′S-methyl-(2H)-tetrahydropyran-2′-yloxy)pentanoic acid], the “Attract Males” value (Panagrellus redivivus) is reported as “oscr#9”.
For `CC1O[C@@H](OCCCCCCCCC(=O)O)C(O)C[C@H]1O` (stereo partly drawn) [oscr#10, 9-(3′R,5′R-Dihydroxy-6′S-methyl-(2H)-tetrahydropyran-2′-yloxy)nonanoic acid], the “Repel Males” value (Panagrellus redivivus) was “oscr#10”.

Source: patent publication US9534008B2, “Small molecule compounds that control plant- and insect-pathogenic nematodes” (California Institute of Technology, priority 2011, dated 2017)
